For one experiment, the target named is Substance-P receptor (Homo sapiens, UniProt P25103). Format: cell membranes, CHO, Membrane. Note: in other assays of this panel Not Active means under 50% inhibition at 10 µM.
The nature of experiment [1]: DRUGMATRIX: Imidazoline I2, Central radioligand binding (ligand: [3H] Idazoxan). The experiment is classed as cell membranes, Rattus norvegicus, Wistar, Cerebral cortex, Membrane. As to conditions: Not Active = under 50% inhibition at 10 µM.
The next experiment concerns the target Melanocortin receptor 3 (Homo sapiens, UniProt P41968). The experiment is classed as cell membranes, HEK293, Membrane. Note: in other assays of this panel Not Active means under 50% inhibition at 10 µM.
Experiment [2] addresses T1, Neuropeptide Y receptor type 1 (Homo sapiens, UniProt P25929).
T1 sequence (P25929 whole entry): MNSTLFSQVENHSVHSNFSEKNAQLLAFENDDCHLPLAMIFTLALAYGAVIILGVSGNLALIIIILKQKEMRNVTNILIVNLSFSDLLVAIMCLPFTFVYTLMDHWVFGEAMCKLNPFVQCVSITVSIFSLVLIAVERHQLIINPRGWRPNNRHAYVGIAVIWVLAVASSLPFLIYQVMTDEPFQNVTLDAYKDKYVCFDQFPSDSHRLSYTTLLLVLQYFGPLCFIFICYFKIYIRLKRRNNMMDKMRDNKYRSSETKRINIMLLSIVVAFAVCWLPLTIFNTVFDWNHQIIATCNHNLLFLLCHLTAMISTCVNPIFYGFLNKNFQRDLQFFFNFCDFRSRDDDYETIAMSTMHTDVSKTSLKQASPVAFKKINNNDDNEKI
The experiment is classed as cell membranes, Membrane. To be noted: sk-n-mc.

The next experiment deals with Nitric oxide synthase 1 (Rattus norvegicus, UniProt P29476). Format: tissue-based, Cerebellum.
The target in the next experiment is T2, Interstitial collagenase (Homo sapiens, UniProt P03956).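 Note: MMP-1 enzyme inhibition assay using a peptide substrate; in other assays of this panel Not Active means under 50% inhibition at 10 µM.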
T2 sequence (P03956 whole entry): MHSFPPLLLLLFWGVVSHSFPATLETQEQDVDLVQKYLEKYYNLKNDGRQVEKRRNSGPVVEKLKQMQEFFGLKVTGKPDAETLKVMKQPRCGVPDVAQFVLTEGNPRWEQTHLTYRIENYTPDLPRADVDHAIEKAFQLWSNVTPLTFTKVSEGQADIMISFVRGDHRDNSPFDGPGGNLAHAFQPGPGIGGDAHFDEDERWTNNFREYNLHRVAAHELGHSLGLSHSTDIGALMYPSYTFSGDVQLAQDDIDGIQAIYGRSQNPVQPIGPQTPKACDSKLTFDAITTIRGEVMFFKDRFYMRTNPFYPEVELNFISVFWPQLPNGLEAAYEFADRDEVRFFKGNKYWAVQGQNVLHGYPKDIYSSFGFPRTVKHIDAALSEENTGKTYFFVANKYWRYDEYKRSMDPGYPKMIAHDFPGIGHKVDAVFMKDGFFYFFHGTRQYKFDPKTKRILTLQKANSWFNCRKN
In words: biochemical. The experiment is classed as tissue-based, Rheumatoid synovial fibroblasts.

Sequence of Nitric oxide synthase 1 (P29476 whole entry): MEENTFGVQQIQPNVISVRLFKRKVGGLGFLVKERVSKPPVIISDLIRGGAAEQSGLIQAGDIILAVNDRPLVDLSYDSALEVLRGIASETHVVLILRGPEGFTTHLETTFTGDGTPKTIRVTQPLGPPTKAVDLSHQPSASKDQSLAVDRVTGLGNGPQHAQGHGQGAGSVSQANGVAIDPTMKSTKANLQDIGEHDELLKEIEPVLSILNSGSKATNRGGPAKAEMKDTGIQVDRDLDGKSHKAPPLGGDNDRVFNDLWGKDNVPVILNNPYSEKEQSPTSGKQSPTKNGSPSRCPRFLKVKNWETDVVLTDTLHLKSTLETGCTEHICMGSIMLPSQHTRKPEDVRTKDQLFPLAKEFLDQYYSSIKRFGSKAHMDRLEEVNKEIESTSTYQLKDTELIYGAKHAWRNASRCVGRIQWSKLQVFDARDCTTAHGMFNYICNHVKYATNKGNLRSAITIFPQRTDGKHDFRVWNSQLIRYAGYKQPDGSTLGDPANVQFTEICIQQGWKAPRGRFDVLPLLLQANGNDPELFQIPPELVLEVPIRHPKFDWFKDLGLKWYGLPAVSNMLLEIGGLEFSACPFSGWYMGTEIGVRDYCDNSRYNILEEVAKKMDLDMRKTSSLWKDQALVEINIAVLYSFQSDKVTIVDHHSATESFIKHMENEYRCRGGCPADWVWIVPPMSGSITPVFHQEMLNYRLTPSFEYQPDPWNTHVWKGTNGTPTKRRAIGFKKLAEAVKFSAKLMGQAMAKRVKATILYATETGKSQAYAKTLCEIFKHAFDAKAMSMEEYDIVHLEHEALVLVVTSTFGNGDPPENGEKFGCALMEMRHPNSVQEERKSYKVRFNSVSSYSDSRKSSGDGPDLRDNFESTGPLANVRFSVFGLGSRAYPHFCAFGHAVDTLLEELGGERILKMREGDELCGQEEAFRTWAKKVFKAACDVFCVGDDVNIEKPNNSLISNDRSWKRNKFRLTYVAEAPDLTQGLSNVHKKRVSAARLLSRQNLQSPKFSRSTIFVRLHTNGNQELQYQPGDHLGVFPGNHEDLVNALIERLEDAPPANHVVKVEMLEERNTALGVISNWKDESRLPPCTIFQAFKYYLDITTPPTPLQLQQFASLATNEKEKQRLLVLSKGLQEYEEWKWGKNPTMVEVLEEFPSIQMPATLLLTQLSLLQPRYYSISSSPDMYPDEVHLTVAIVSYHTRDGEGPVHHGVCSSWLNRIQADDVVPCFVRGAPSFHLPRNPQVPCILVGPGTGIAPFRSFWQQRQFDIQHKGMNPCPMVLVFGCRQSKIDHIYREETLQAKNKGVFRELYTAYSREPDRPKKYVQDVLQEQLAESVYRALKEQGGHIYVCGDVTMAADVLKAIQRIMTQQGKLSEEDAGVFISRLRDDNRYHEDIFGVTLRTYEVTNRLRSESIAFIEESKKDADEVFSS
Sequence of Melanocortin receptor 3 (P41968 whole entry): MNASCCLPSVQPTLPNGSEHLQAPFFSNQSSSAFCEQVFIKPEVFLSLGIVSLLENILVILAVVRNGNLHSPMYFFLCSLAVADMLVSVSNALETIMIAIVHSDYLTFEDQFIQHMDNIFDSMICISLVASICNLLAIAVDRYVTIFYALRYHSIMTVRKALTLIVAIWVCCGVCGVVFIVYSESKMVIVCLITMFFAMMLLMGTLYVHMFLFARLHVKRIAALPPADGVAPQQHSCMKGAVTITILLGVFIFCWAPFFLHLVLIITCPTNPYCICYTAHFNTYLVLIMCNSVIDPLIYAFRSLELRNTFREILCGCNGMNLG
Sequence of Substance-P receptor (P25103 whole entry): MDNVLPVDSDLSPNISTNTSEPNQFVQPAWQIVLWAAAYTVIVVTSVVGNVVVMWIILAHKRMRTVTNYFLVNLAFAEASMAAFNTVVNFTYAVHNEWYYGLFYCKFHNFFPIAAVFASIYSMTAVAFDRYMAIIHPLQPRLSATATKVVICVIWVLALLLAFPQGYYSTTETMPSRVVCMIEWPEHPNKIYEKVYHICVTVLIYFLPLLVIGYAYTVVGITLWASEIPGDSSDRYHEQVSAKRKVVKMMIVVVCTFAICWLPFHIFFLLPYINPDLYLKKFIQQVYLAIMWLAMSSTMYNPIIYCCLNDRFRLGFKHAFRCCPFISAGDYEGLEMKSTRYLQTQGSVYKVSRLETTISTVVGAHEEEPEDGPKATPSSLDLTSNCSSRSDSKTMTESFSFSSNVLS

Consider `CC(C)(C)NC(=O)[C@@H]1C[C@@H]2CCCC[C@@H]2CN1C[C@@H](O)[C@H](Cc1ccccc1)NC(=O)[C@H](CC(N)=O)NC(=O)c1ccc2ccccc2n1`, for which the IC50 entry (against Substance-P receptor (cho); in experiment [1]; on Melanocortin receptor 3 (hek293); in experiment [2]; against Nitric oxide synthase 1; at Interstitial collagenase) was “Not Active” throughout. Also, the Ki entry in experiment [1] is listed as “Not Active”.
Turning to `CC(=O)[C@@]1(O)CC[C@H]2[C@@H]3C[C@H](C)C4=CC(=O)CC[C@]4(C)[C@H]3CC[C@@]21C`, the IC50 result (at Substance-P receptor (cho); in experiment [1]; against Melanocortin receptor 3 (hek293); in experiment [2]; on Nitric oxide synthase 1; at Interstitial collagenase) was “Not Active” in each case. In experiment [1], the Ki result is recorded as “Not Active”.
Take `N[C@@H](Cc1ccc(N(CCCl)CCCl)cc1)C(=O)O`: the IC50 entry (against Substance-P receptor (cho); in experiment [1]; against Melanocortin receptor 3 (hek293); in experiment [2]; against Nitric oxide synthase 1; at Interstitial collagenase) was “Not Active” throughout. For the same molecule, the Ki result in experiment [1] is given as “Not Active”.
`CCCCc1oc2ccccc2c1C(=O)c1cc(I)c(OCCN(CC)CC)c(I)c1` [AMIODARONE]: the IC50 result (against Substance-P receptor (cho); in experiment [2]; on Nitric oxide synthase 1; against Interstitial collagenase) was “Not Active” throughout.
`OCCN(CCO)c1nc(N2CCCCC2)c2nc(N(CCO)CCO)nc(N3CCCCC3)c2n1` [DIPYRIDAMOLE]: the IC50 result (at Substance-P receptor (cho); in experiment [1]; against Melanocortin receptor 3 (hek293); in experiment [2]; on Nitric oxide synthase 1; on Interstitial collagenase) was “Not Active” each time. The Ki entry in experiment [1] is reported as “Not Active”.
On to `Cc1oncc1C(=O)Nc1ccc(C(F)(F)F)cc1` [LEFLUNOMIDE], for which the IC50 result (at Substance-P receptor (cho); in experiment [1]; at Melanocortin receptor 3 (hek293); in experiment [2]; at Nitric oxide synthase 1; on Interstitial collagenase) was “Not Active” in each case. Besides, the Ki result in experiment [1] is “Not Active”.
Regarding `c1ccc([C@H]2CN3CCSC3=N2)cc1` [LEVAMISOLE], the IC50 entry (at Substance-P receptor (cho); in experiment [1]; against Melanocortin receptor 3 (hek293); in experiment [2]; at Nitric oxide synthase 1; against Interstitial collagenase) was “Not Active” each time. Further, in experiment [1], the Ki entry is given as “Not Active”.
As for `N[C@@H](Cc1ccc(O)c(O)c1)C(=O)O` [LEVODOPA], the IC50 entry (at Substance-P receptor (cho); in experiment [1]; against Melanocortin receptor 3 (hek293); in experiment [2]; on Nitric oxide synthase 1; at Interstitial collagenase) was “Not Active” each time. Also, the Ki result in experiment [1] is on record as “Not Active”.
Turning to `N[C@@H](Cc1cc(I)c(Oc2ccc(O)c(I)c2)c(I)c1)C(=O)O` [LIOTHYRONINE], the IC50 result (against Substance-P receptor (cho); on Melanocortin receptor 3 (hek293); in experiment [2]; against Nitric oxide synthase 1; on Interstitial collagenase) was “Not Active” in each case.
`O=NN(CCCl)C(=O)NC1CCCCC1` [LOMUSTINE]: the IC50 result (against Substance-P receptor (cho); in experiment [1]; on Melanocortin receptor 3 (hek293); in experiment [2]; against Nitric oxide synthase 1; at Interstitial collagenase) was “Not Active” throughout. Moreover, the Ki entry in experiment [1] is “Not Active”.
`CCOC(=O)N1CCC(=C2c3ccc(Cl)cc3CCc3cccnc32)CC1` [LORATADINE]: the 50% inhibitory concentration (IC50) entry (against Substance-P receptor (cho); in experiment [1]; at Melanocortin receptor 3 (hek293); in experiment [2]; on Nitric oxide synthase 1; against Interstitial collagenase) was “Not Active” in each case. For the same molecule, the inhibitory constant (Ki) entry in experiment [1] is given as “Not Active”.
As for `Cn1ccnc1S` [METHIMAZOLE], the IC50 entry (at Substance-P receptor (cho); in experiment [1]; against Melanocortin receptor 3 (hek293); in experiment [2]; against Nitric oxide synthase 1; at Interstitial collagenase) was “Not Active” in each case. Moreover, the Ki entry in experiment [1] is given as “Not Active”.
In the case of `CC[C@@H](CO)NC(=O)[C@@H]1C=C2c3cccc4[nH]cc(c34)C[C@H]2N(C)C1` [METHYLERGONOVINE], the IC50 result was “Not Active” against Substance-P receptor (cho); 2.93 µM in experiment [1] (read-out: IC50); “Not Active” against Melanocortin receptor 3 (hek293); “Not Active” in experiment [2]; “Not Active” against Nitric oxide synthase 1; “Not Active” on Interstitial collagenase. Also, the Ki in experiment [1] (read-out: Ki) worked out at 1.96 µM.
On to `COc1nc(C)nc(Cl)c1NC1=NCCN1` [MOXONIDINE], for which the IC50 entry was “Not Active” against Substance-P receptor (cho); 1.48 µM in experiment [1] (read-out: IC50); “Not Active” against Melanocortin receptor 3 (hek293); “Not Active” in experiment [2]; “Not Active” against Nitric oxide synthase 1; “Not Active” on Interstitial collagenase. Further, the Ki in experiment [1] (read-out: Ki) came out at 0.984 µM.
As for `COc1c(C)c2c(c(O)c1C/C=C(\C)CCC(=O)O)C(=O)OC2` [MYCOPHENOLIC ACID], the 50% inhibitory concentration (IC50) result (on Substance-P receptor (cho); in experiment [1]; against Melanocortin receptor 3 (hek293); in experiment [2]; on Nitric oxide synthase 1; on Interstitial collagenase) was “Not Active” in each case. Besides, in experiment [1], the Ki result is reported as “Not Active”.
Take `O=c1ncn2nc(Sc3ccc(F)cc3F)ccc2c1-c1c(Cl)cccc1Cl` [NEFLAMAPIMOD]: the IC50 result (at Substance-P receptor (cho); in experiment [1]; at Melanocortin receptor 3 (hek293); in experiment [2]; against Nitric oxide synthase 1; on Interstitial collagenase) was “Not Active” each time. Also, the inhibition constant Ki result in experiment [1] is reported as “Not Active”.
In the case of `CN1CCN(CCCN2c3ccccc3Sc3ccc(Cl)cc32)CC1` [PROCHLORPERAZINE], the IC50 result (at Substance-P receptor (cho); at Melanocortin receptor 3 (hek293); in experiment [2]; against Nitric oxide synthase 1; against Interstitial collagenase) was “Not Active” in each case.
With `CO[C@H]1/C=C/O[C@@]2(C)Oc3c(C)c(O)c4c(O)c(c(/C=N/N5CCN(C)CC5)c(O)c4c3C2=O)NC(=O)/C(C)=C\C=C\[C@H](C)[C@H](O)[C@@H](C)[C@@H](O)[C@@H](C)[C@H](OC(C)=O)[C@@H]1C` [RIFAMPIN], the IC50 result (against Substance-P receptor (cho); in experiment [1]; against Melanocortin receptor 3 (hek293); in experiment [2]; on Nitric oxide synthase 1; against Interstitial collagenase) was “Not Active” throughout. The Ki entry in experiment [1] was “Not Active”.
Take `Nc1nc2ccc(OC(F)(F)F)cc2s1` [RILUZOLE]: the IC50 result (on Substance-P receptor (cho); in experiment [1]; at Melanocortin receptor 3 (hek293); in experiment [2]; on Nitric oxide synthase 1; against Interstitial collagenase) was “Not Active” in each case. Moreover, in experiment [1], the Ki result is listed as “Not Active”.
Turning to `Cc1nc2n(c(=O)c1CCN1CCC(c3noc4cc(F)ccc34)CC1)CCCC2` [RISPERIDONE], the IC50 entry (on Substance-P receptor (cho); against Melanocortin receptor 3 (hek293); in experiment [2]; against Nitric oxide synthase 1; at Interstitial collagenase) was “Not Active” throughout.
In the case of `C=CCC1(C(C)CCC)C(=O)NC(=O)NC1=O` (centres undefined) [SECOBARBITAL], the IC50 entry (on Substance-P receptor (cho); in experiment [1]; on Melanocortin receptor 3 (hek293); in experiment [2]; at Nitric oxide synthase 1; at Interstitial collagenase) was “Not Active” in each case. For the same molecule, the Ki entry in experiment [1] is recorded as “Not Active”.
Regarding `C[C@@H]1CN(c2c(F)c(N)c3c(=O)c(C(=O)O)cn(C4CC4)c3c2F)C[C@H](C)N1` [SPARFLOXACIN], the IC50 result (against Substance-P receptor (cho); in experiment [1]; against Melanocortin receptor 3 (hek293); in experiment [2]; at Nitric oxide synthase 1; against Interstitial collagenase) was “Not Active” in each case. Further, the Ki result in experiment [1] is “Not Active”.
As for `Cc1noc(NS(=O)(=O)c2ccc(N)cc2)c1C` [SULFISOXAZOLE], the IC50 entry (at Substance-P receptor (cho); in experiment [1]; against Melanocortin receptor 3 (hek293); in experiment [2]; at Nitric oxide synthase 1; against Interstitial collagenase) was “Not Active” in each case. In experiment [1], the Ki entry is reported as “Not Active”.
`CC/C(=C(\c1ccccc1)c1ccc(OCCN(C)C)cc1)c1ccccc1` [TAMOXIFEN]: the IC50 is 15.7 µM at Substance-P receptor (read-out: IC50); 19.9 µM at Melanocortin receptor 3 (read-out: IC50); “Not Active” in experiment [2]; “Not Active” against Nitric oxide synthase 1; “Not Active” at Interstitial collagenase. Further, the Ki at Substance-P receptor (read-out: Ki) was determined as 8.54 µM; on Melanocortin receptor 3 (read-out: Ki), 17.3 µM.

As usually defined, the IC50 is the concentration needed to halve the response being measured. By Ki is commonly meant the dissociation constant of the complex between target and ligand, obtained from inhibition or displacement.

Values taken from ChEMBL document CHEMBL1909046, “DrugMatrix in vitro pharmacology data”.
